Data set [1] deals with Escherichia coli. The data set can be described thus: Antimicrobial activity against Escherichia coli ATCC 25922 assessed as inhibition of bacterial growth incubated for 18 hrs by CLSI based method. It is filed as functional.
In data set [2] the test system is Staphylococcus aureus. Put plainly: Antimicrobial activity against Staphylococcus aureus ATCC 29213 assessed as inhibition of bacterial growth incubated for 18 hrs by CLSI based method. Format: functional.
For data set [3], the system named is Erythrocyte. The data set can be described thus: Hemolytic activity in human red blood cells assessed as induction of hemoglobin release incubated for 4 hrs by microplate reader based assay. Format: cell-based.
In data set [4] the test system is Cell membrane. The data set can be described thus: Induction of outer membrane permeability in Escherichia coli assessed as periplasmic-beta-lactamase release at 5 uM using CENTA. Format: subcellular.
Data set [5] concerns Cell membrane. Put plainly: Induction of inner membrane permeability in Escherichia coli assessed as cytoplasmic beta-galactosidase release at 5 uM using ONPG.
Data set [6] concerns Cell membrane. The data set can be described thus: Induction of inner membrane permeability in Escherichia coli at 5 uM incubated for 1 hr by SYTOX Green-staining based flow cytometry analysis. Format: subcellular. (Flow cytometry measures light scatter and fluorescence of single cells or particles in a stream.)
For data set [7], the system named is Cell membrane. The data set can be described thus: Induction of outer membrane re-arragenemnts in Escherichia coli ATCC 25922 incubated for 4 mins by NPN uptake assay. Format: subcellular.
Data set [8] has as its system Cell membrane. The data set can be described thus: Induction of outer membrane re-arragenemnts in Escherichia coli D21f2 incubated for 4 mins by NPN uptake assay. It is filed as subcellular.
Data set [9] concerns Cell membrane. The data set can be described thus: Induction of cell membrane fluidity changes in Escherichia coli ATCC 25922 by Laurdan-dye based fluorescence assay. It is filed as subcellular.
Data set [10] deals with Escherichia coli. Put plainly: Antimicrobial activity against Escherichia coli ATCC 25922 assessed as reduction in cell viability at 10 to 10000 uM by propidium iodide staining based assay. The following applies: dose microM 10-10000. It is filed as functional, organism-based.
The subject of data set [11] is Escherichia coli. Put plainly: Induction of cell lysis in Escherichia coli at 5 uM by transmission electron microscopy. It is filed as functional, organism-based.
A short description of data set [12]: Induction of cell membrane permeability in POPE/POPG assessed as calcein leakage at 2 to 8 uM. The following applies: dose microM 2-8.
Data set [13] deals with Cell membrane. The data set can be described thus: Induction of membrane permeability in Escherichia coli assessed as increase in fine surface roughness at 25 uM by atomic force microscopy. Format: subcellular.
Data set [14] has as its system Escherichia coli. The data set can be described thus: Binding affinity to outer membrane in POPE/POPG lipid layers containing LPS by SPR assay. For orientation: SPR reads the build-up and loss of mass on a sensor chip optically.
Data set [15] deals with Escherichia coli. The data set can be described thus: Binding affinity to inner membrane using POPE/POPG (7/3) by SPR assay.
Data set [16] deals with Escherichia coli. Put plainly: Binding affinity to cell membrane using POPC/cholesterol (8/2) by SPR assay.
Data set [17] deals with Escherichia coli. Put plainly: Induction of cell killing in Escherichia coli assessed as time needed for bacterial destruction at 128 ug/ml. Format: functional. The note with it: dose 128 µg/ml.

The values below come from ChEMBL document CHEMBL4699652, “Proline Hinged Amphipathic α-Helical Peptide Sensitizes Gram-Negative Bacteria to Various Gram-Positive Antibiotics” (J Med Chem, 2020).

Activity calls are given as the source filed them. No cut-off for these calls is given here. Bounds are passed on as bounds.

As to Ac-KLLKLLPKLLKLLK-NH2, the MIC amounted to 10 µM in data set [1] and 5 µM in [2]. The HC10 in data set [3] came out at 5 µM.

On to Ac-KPLKLLKKLLKLLK-NH2, for which the MIC in data set [1] and in data set [2] was 5 µM throughout. The HC10 in data set [3] was 5 µM.

Ac-LKKLLKPLKKLLKL-NH2: the MIC in data set [1] and in data set [2] was 20 µM in each case. The HC10 in data set [3] amounted to 160 µM.

Ac-KLLKLLKKLLKLLK-NH2: the figures for the MIC in data set [1] and in [2] were 20 µM and 10 µM, respectively. Further, the HC10 in [3] was determined as 0.625 µM.

For Ac-KLLKLPKKLLKLLK-NH2, the MIC is at least 80 µM in data set [1] and over 80 µM in [2]. The HC10 in data set [3] came to 640 µM. For the same compound, the result in data set [4], in [5], in [6] and in data set [8] was inactive. Moreover, the result in [7] was Active.

On to Ac-KLLKLLKKLLKPLK-NH2, for which the minimum inhibitory concentration (MIC) in [1] came to 20 µM; in data set [2], 10 µM. Further, the HC10 in [3] stood at 40 µM.

As to COLISTIN, the outcome in data set [4], in data set [5], in data set [6] and in [8] was inactive. Besides, the outcome in data set [7], in data set [9] and in [10] was Active.

For Ac-KLLKLLKKLLKLPK-NH2, the minimal inhibitory concentration (MIC) in [1] and in data set [2] was 10 µM throughout. The HC10 in [3] is 40 µM.

Turning to Ac-LKKLLKLLPKLLKL-NH2, the results for the MIC in [1] and in data set [2] were 5 µM and 2.5 µM, respectively. For the same compound, the HC10 in [3] is 5 µM. The outcome in [11] and in data set [7] was Active. Further, the result in data set [4], in data set [5], in [12], in data set [6] and in [8] was inactive.

Take Ac-KLLKLLKPLLKLLK-NH2: the minimum inhibitory concentration (MIC) in [1] is 10 µM; in data set [2], 2.5 µM. Also, the HC10 in [3] was found to be 2.5 µM.

Take Ac-LKKLLPLLKKLLKL-NH2: the results for the MIC in data set [1] and in data set [2] were 10 µM and 2.5 µM, respectively. For the same compound, in [3], the HC10 was 1.25 µM.

As to Ac-LKKLLKLPKKLLKL-NH2, the MIC in [1] was 40 µM; in data set [2], over 80 µM. Besides, in data set [3], the HC10 stood at 640 µM. Moreover, the outcome in data set [4], in [5], in [6] and in data set [8] was inactive. For the same compound, the outcome in [7] was Active.

As for H-LKKLLKLLKKPLKL-NH2, the minimum inhibitory concentration (MIC) came out at 20 µM in data set [1] and 40 µM in data set [2]. Moreover, the HC10 in data set [3] is 320 µM. Besides, the result in [4], in data set [5], in [6] and in [8] was inactive. Also, the result in [7] was Active.

Turning to Ac-KLPKLLKKLLKLLK-NH2, the MIC in [1] and in [2] was 10 µM throughout. Besides, in [3], the HC10 stood at 10 µM.

For H-KLAKLAKKPLKLAK-OH, the outcome in data set [4], in [5], in data set [6], in [8] and in [13] was inactive. In [7], the outcome was Active.

For Ac-KLLKLLKKLPKLLK-NH2, the MIC in data set [1] and in data set [2] was 40 µM throughout. For the same compound, the HC10 in data set [3] is 80 µM.

Consider Ac-LKKLLKLLKKLPKL-NH2, for which the minimal inhibitory concentration (MIC) stood at 5 µM in data set [1] and 10 µM in [2]. Moreover, the HC10 in data set [3] came to 40 µM. Besides, the result in data set [11], in data set [7] and in data set [15] was Active. For the same compound, the outcome in data set [4], in data set [5], in data set [12], in data set [6], in data set [8] and in [14] was inactive. Also, the outcome in [16] was inactive.

On to Ac-LKKLLKLLKPLLKL-NH2, for which the MIC in [1] came out at 5 µM; in data set [2], 2.5 µM. Also, in data set [3], the HC10 stood at 5 µM.

As for Ac-LKKPLKLGKKLLKL-NH2, the MIC came to 5 µM in data set [1] and 40 µM in data set [2]. Also, in data set [3], the HC10 is 160 µM.

Regarding Ac-LKKLLKLLKKLLKL-NH2, the MIC in data set [1] and in [2] was 10 µM each time. Besides, the HC10 in data set [3] came to 5 µM.

Turning to `CC[C@H](C)[C@H](NC(=O)CN)C(=O)NCC(=O)N[C@@H](C)C(=O)N[C@H](C(=O)N[C@@H](CC(C)C)C(=O)N[C@@H](CCCCN)C(=O)N[C@H](C(=O)N[C@@H](CC(C)C)C(=O)N[C@H](C(=O)N[C@H](C(=O)NCC(=O)N[C@@H](CC(C)C)C(=O)N1CCC[C@H]1C(=O)N[C@@H](C)C(=O)N[C@@H](CC(C)C)C(=O)N[C@H](C(=O)N[C@@H](CO)C(=O)N[C@@H](Cc1c[nH]c2ccccc12)C(=O)N[C@H](C(=O)N[C@@H](CCCCN)C(=O)N[C@@H](CCCNC(=N)N)C(=O)N[C@@H](CCCCN)C(=O)N[C@@H](CCCNC(=N)N)C(=O)N[C@@H](CCC(N)=O)C(=O)N[C@@H](CCC(N)=O)C(N)=O)[C@@H](C)CC)[C@@H](C)CC)[C@@H](C)O)[C@@H](C)O)C(C)C)C(C)C` [MELITTIN], the result in data set [4], in data set [5], in data set [6] and in data set [8] was inactive. In addition, the outcome in [7] was Active. In data set [17], the Time was 4 h.

Consider Ac-KLLKPLKKLLKLLK-NH2, for which the MIC in data set [1] and in data set [2] was 20 µM in each case. Moreover, the HC10 in [3] amounted to 80 µM.

On to Ac-LKKLPKLSKKLLKL-NH2, for which the MIC in data set [1] came out at 2.5 µM; in data set [2], 10 µM. In addition, in data set [3], the HC10 is 80 µM.

As a reminder, the MIC is the lowest concentration that inhibits growth of the organism.
